Molecules are shown by their SMILES. Where a name gives a salt, the structure may show the parent alone.

The nature of one test: Anti-melanogenic activity in theophylline-stimulated mouse B16 melanoma 4A5 cells assessed as inhibition of melanogenesis. The test is classed as functional, cell-based.
In the case of `COc1cc2c(cc1OC)[C@@H](Cc1ccc(O)cc1)N(C)CC2`, the IC50 turned out to be 6.5 µM.

Take `COc1ccc2ccnc(C(C)(C)c3ccccc3)c2c1`: the IC50 amounted to 18.1 µM. For `COc1ccc2c(c1)C(C)(C)c1nccc3cc4c(c-2c13)OCO4`, the IC50 turned out to be 4.9 µM. `COc1ccc2ccnc3c2c1-c1ccccc1C3(C)C`: the IC50 worked out at 4 µM. For the compound `CC(C)(c1ccccc1)c1nccc2cc3c(cc12)OCO3`, the IC50 is above 30 µM.

Turning to `COc1cc2c3c(c1OC)-c1ccccc1C[C@H]3N(C)CC2` [NUCIFERINE HYDROCHLORIDE], the IC50 is 7.1 µM. Still for that read-out and setting: the value for `COc1cc2c3c(nccc3c1)C(C)(C)c1ccccc1-2` was 5 µM; that for `OC[C@H]1O[C@@H](Oc2ccc(O)cc2)[C@H](O)[C@@H](O)[C@@H]1O` [ARBUTIN] was 174 µM; that for `COc1cccc(C(C)(C)c2nccc3cc(OC)ccc23)c1` was above 30 µM. With `CC(C)(c1ccccc1)c1nccc2ccccc12`, the IC50 was above 30 µM. As for `COc1cccc(C(C)(C)c2nccc3cc4c(cc23)OCO4)c1`, the IC50 is above 30 µM. On the same count and under the same terms, the value for `CC1(C)c2ccccc2-c2c3c(cc4ccnc1c24)OCO3` was 6.7 µM; that for `COc1ccc2c(C(C)(C)c3ccccc3)nccc2c1` was above 30 µM; that for `CC1(C)c2ccccc2-c2cccc3ccnc1c23` was 3.1 µM. For `COc1ccc2c(c1)C(C)(C)c1nccc3cc(OC)cc-2c13`, the IC50 was found to be 7.5 µM.

A short description of a further test: Potency index, ratio of arbutin IC50 to test compound IC50 for anti-melanogenic activity in theophylline-stimulated mouse B16 melanoma 4A5 cells assessed as inhibition of melanogenesis. The test is classed as functional.
In the case of `COc1ccc2c(c1)C(C)(C)c1nccc3cc4c(c-2c13)OCO4`, the “Ratio IC50” value turned out to be 40.

A word on the IC50: it is the concentration needed to halve the response being measured.

Values taken from ChEMBL document CHEMBL5236578, “Structure-activity relationship study of 4,5-didehydroguadiscine, an aporphine alkaloid showing potent melanogenesis-inhibitory activity in B16 melanoma cells” (Bioorg Med Chem Lett, 2022).
